From patent publication US20230099344A1, “COMPOUNDS AND METHODS FOR THE TARGETED DEGRADATION OF IRAK-4” (Arvinas Operations, Inc., priority 2021, published 2023) come the findings set out here.

By IC50 is commonly meant the concentration needed to halve the response being measured. As usually defined, the DC50 is the midpoint of the concentration-degradation curve.

Format in all cases: cell-based
Assay [1] deals with IL6. Description: R848 stimulated IL6 inhibition assay in PBMC. The note with it: PBMC, human PBMCs, R848 stimulation, compound overnight, IL6 by MSD after 24 hrs; for Dmax: Homo sapiens, 24 h, read-out: R848 stim IL6 inhibition Dmax; for IC50: read-out: R848 stim IL6 inhibition IC50. The method, then:
(§1) IL-1β, LPS, or R848 Stimulated IL6 Inhibition and IL-1β Stimulated IL8 Inhibition Assay
(§2) Human PBMC cells were seeded at 2.0×10^6 cells/mL, treated with compound overnight, and dosed with the EC50 concentration of each stimulant (either IL-1B. LPS, or R848) was determined for each donor. After 24 hrs, media was collected and analyzed by MSD for IL6 and/or IL8 levels.

The test system of assay [2] is IL6. Nature of the assay: LPS stimulated IL6 inhibition assay in PBMC. The note with it: Homo sapiens, PBMC, 24 h, human PBMCs, LPS stimulation, compound overnight, IL6 by MSD after 24 hrs; for Dmax: read-out: LPS Stim IL6 inhibition Dmax; for IC50: read-out: LPS stim IL6 inhibition IC50. As for the experimental part: as §1, §2
Assay [3] addresses T1, IRAK-4 (Homo sapiens, UniProt Q9NWZ3).
T1 sequence (Q9NWZ3 1-460): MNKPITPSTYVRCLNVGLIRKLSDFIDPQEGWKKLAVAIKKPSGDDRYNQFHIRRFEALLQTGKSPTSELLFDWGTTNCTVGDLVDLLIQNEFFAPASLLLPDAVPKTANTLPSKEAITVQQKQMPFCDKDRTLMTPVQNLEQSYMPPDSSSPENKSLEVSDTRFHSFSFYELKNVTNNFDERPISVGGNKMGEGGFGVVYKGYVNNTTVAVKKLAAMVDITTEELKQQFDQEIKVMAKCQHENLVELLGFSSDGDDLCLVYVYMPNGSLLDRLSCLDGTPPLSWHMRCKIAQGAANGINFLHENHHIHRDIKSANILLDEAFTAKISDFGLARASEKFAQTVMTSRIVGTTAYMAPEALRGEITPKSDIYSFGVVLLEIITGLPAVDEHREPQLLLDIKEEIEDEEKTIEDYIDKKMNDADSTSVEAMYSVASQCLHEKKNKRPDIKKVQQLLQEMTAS
Description: IRAK-4 ELISA, PBMC degradation. Further details: endogenous in cells; host or cells: PBMC. The note with it: treated overnight. The essentials:
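OCI-Ly10 cells (seeded at 1×10^6/ml) or human PBMC (seeded at 2×10^6/ml) were treated with compound on the day of seeding and incubated overnight. Lysates were then assayed for remaining IRAK-4 protein by sandwich ELISA with a matched antibody pair.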
On the technique in general: ELISA stands for enzyme-linked immunosorbent assay.

Consider `O=C1CCC(N2Cc3cc(N4CCC(CN5CCC(N6Cc7cc(NC(=O)c8cnn9cccnc89)c(N8CCN(C9CC(F)(F)C9)CC8)cc7C6=O)CC5)CC4)ccc3C2=O)C(=O)N1` (stereo not shown) [Example 54], for which, in assay [1], the Dmax fell in the range of 80 to 90% and the IC50 lay in the range of 10 to 50 nM. In assay [2], the Dmax was below 70% and the half-inhibitory concentration (IC50) is below 10 nM. For the same compound, in assay [3], the 50% degradation concentration (DC50) was in the range of 1 to 5 nM, the Dmax was at least 90% and the “PBMC DC90” value is on record as “A (A represents a DC90 value <10.0 nM)”.
Turning to `O=C1CCC(N2Cc3c(ccc(N4CCC(CN5CCC(N6Cc7cc(NC(=O)c8cnn9cccnc89)c(N8CCN(C9CC(F)(F)C9)CC8)cc7C6=O)CC5)CC4)c3F)C2=O)C(=O)N1` (stereo not shown) [Example 55], in assay [1], the Dmax was at least 90% and the IC50 was 10 to 50 nM. In addition, in assay [2], the Dmax is below 70% and the 50% inhibitory concentration (IC50) was below 10 nM. In addition, in assay [3], the DC50 was below 1 nM, the Dmax was at least 90% and the “PBMC DC90” value was “A (A represents a DC90 value <10.0 nM)”.
For the compound `Cc1cnc2c(C(=O)Nc3cc4c(cc3OC(C)C)C(=O)N(C3CCN(CC5CCN(c6ccc7c(c6)C(=O)N(C6CCC(=O)NC6=O)C7=O)CC5)CC3)C4)cnn2c1` (stereo not shown) [Example 56], in assay [1], the Dmax was at least 90% and the IC50 was in the range of 10 to 50 nM. In assay [2], the Dmax was in the range of 70 to 80% and the IC50 is below 10 nM. In assay [3], the DC50 lay in the range of 1 to 5 nM, the Dmax was at least 90% and the “PBMC DC90” value is given as “A (A represents a DC90 value <10.0 nM)”.
In the case of `CC(C)Oc1cc2c(cc1NC(=O)c1cnn3cccnc13)CN(C1CCN(CC3CCN(c4ccc5c(c4)C(=O)N(C4CCC(=O)NC4=O)C5)CC3)CC1)C2=O` (stereo not shown) [Example 105], in assay [1], the Dmax lay in the range of 80 to 90% and the IC50 is 50 to 100 nM. In assay [2], the Dmax was in the range of 70 to 80% and the IC50 was at least 100 nM. In assay [3], the DC50 is at least 10 nM and the “PBMC DC90” value is reported as “D (D represents a DC90 value ≥50 nM)”.
With `CC(C)Oc1cc2c(cc1NC(=O)c1cnn3cccnc13)CN(C1CCN(CC3(F)CN(c4ccc5c(c4)C(=O)N(C4CCC(=O)NC4=O)C5)C3)CC1)C2=O` (stereo not shown) [Example 106], in assay [1], the Dmax is at least 90% and the IC50 is 10 to 50 nM. In assay [2], the Dmax lay in the range of 80 to 90% and the IC50 is at least 100 nM. Also, in assay [3], the DC50 fell in the range of 1 to 5 nM, the Dmax was at least 90% and the “PBMC DC90” value is “A (A represents a DC90 value <10.0 nM)”.
`CC(C)Oc1cc2c(cc1NC(=O)c1cnn3cccnc13)CN(C1CCN(CC3(F)CN(c4ccc5c(c4F)CN(C4CCC(=O)NC4=O)C5=O)C3)CC1)C2=O` (stereo not shown) [Example 107]: in assay [1], the Dmax is at least 90% and the IC50 fell in the range of 50 to 100 nM. Moreover, in assay [2], the Dmax was at least 90% and the IC50 was in the range of 10 to 50 nM. Further, in assay [3], the DC50 was 1 to 5 nM, the Dmax lay in the range of 70 to 80% and the “PBMC DC90” value was “A (A represents a DC90 value <10.0 nM)”.
`CC(C)Oc1cc2c(cc1NC(=O)c1cnn3cccnc13)CN(C1CCN(CC3(F)CN(c4cc(F)c5c(c4)C(=O)N(C4CCC(=O)NC4=O)C5)C3)CC1)C2=O` (stereo not shown) [Example 108]: in assay [1], the Dmax is at least 90% and the IC50 fell in the range of 10 to 50 nM. In assay [2], the Dmax was 80 to 90% and the IC50 lay in the range of 10 to 50 nM. In assay [3], the DC50 is 1 to 5 nM; the Dmax is at least 90%; the “PBMC DC90” value was “B (B represents a DC90 value ≥10.0 nM and <25.0 nM)”.
Regarding `CC(C)Oc1cc2c(cc1NC(=O)c1cnn3cccnc13)CN(C1CCN(CC3(O)CCN(c4ccc5c(c4)C(=O)N(C4CCC(=O)NC4=O)C5=O)CC3)CC1)C2=O` (stereo not shown) [Example 109], in assay [1], the Dmax was at least 90% and the IC50 was in the range of 10 to 50 nM. Moreover, in assay [2], the Dmax lay in the range of 70 to 80% and the IC50 was 10 to 50 nM. In addition, in assay [3], the DC50 was below 1 nM, the Dmax is at least 90% and the “PBMC DC90” value is given as “A (A represents a DC90 value <10.0 nM)”.
In the case of `C=C(CN1CCC(N2Cc3cc(NC(=O)c4cnn5cccnc45)c(OC(C)C)cc3C2=O)CC1)C1CCN(c2ccc3c(c2)C(=O)N(C2CCC(=O)NC2=O)C3=O)CC1` (stereo not shown) [Example 110], in assay [1], the Dmax was at least 90% and the IC50 fell in the range of 10 to 50 nM. Further, in assay [2], the Dmax lay in the range of 80 to 90% and the IC50 lay within 10 to 50 nM. For the same compound, in assay [3], the 50% degradation concentration (DC50) was 1 to 5 nM; the Dmax was at least 90%; the “PBMC DC90” value was “B (B represents a DC90 value ≥10.0 nM and <25.0 nM)”.
As for `CC(C)Oc1cc2c(cc1NC(=O)c1cnn3cccnc13)CN(C1CCN(C(C)(C)C3CCN(c4ccc5c(c4)CN(C4CCC(=O)NC4=O)C5=O)CC3)CC1)C2=O` (stereo not shown) [Example 111], in assay [1], the Dmax was at least 90% and the IC50 lay in the range of 10 to 50 nM. For the same compound, in assay [2], the Dmax is at least 90% and the IC50 was in the range of 10 to 50 nM. Besides, in assay [3], the half-maximal degradation concentration (DC50) is below 1 nM, the Dmax was 80 to 90% and the “PBMC DC90” value is “A (A represents a DC90 value <10.0 nM)”.
Consider `O=C1CCC(N2C(=O)c3ccc(N4CC(F)(CN5CCC(N6Cc7cc(NC(=O)c8cnn9cccnc89)c(N8CCC(N9CCC9)CC8)cc7C6=O)CC5)C4)cc3C2=O)C(=O)N1` (stereo not shown) [Example 116], for which, in assay [1], the Dmax was at least 90% and the IC50 is below 10 nM. Also, in assay [2], the Dmax lay in the range of 80 to 90% and the IC50 was below 10 nM. Moreover, in assay [3], the DC50 is 1 to 5 nM; the Dmax is at least 90%; the “PBMC DC90” value is “B (B represents a DC90 value ≥10.0 nM and <25.0 nM)”.
`O=C1CCC(N2Cc3cc(N4CC(F)(CN5CCC(N6Cc7cc(NC(=O)c8cnn9cccnc89)c(N8CCC(N9CCC9)CC8)cc7C6=O)CC5)C4)ccc3C2=O)C(=O)N1` (stereo not shown) [Example 117]: in assay [1], the Dmax lay within 80 to 90% and the IC50 lay within 10 to 50 nM. Besides, in assay [2], the Dmax lay within 70 to 80% and the IC50 is 10 to 50 nM. In assay [3], the DC50 was in the range of 1 to 5 nM; the Dmax is at least 90%; the “PBMC DC90” value is “B (B represents a DC90 value ≥10.0 nM and <25.0 nM)”.
Take `O=C1CCC(N2Cc3cc(N4CCC(CN5CCC(n6cc7cc(NC(=O)c8cnn9cccnc89)c(OCC(F)F)cc7n6)CC5)CC4)ccc3C2=O)C(=O)N1` (stereo not shown) [Example 149]: in assay [1], the Dmax was at least 90% and the IC50 is below 10 nM. In addition, in assay [2], the Dmax was in the range of 70 to 80% and the IC50 lay in the range of 10 to 50 nM. Also, in assay [3], the DC50 is below 1 nM, the Dmax was 80 to 90% and the “PBMC DC90” value was “A (A represents a DC90 value <10.0 nM)”.
As for `O=C1CCC(N2C(=O)c3ccc(N4CCC(CN5CCC(n6cc7cc(NC(=O)c8cnn9cccnc89)c(N8CCC(N9CCC9)CC8)cc7n6)CC5)CC4)cc3C2=O)C(=O)N1` (stereo not shown) [Example 150], in assay [1], the Dmax is at least 90% and the IC50 lay within 10 to 50 nM. In assay [2], the Dmax was in the range of 80 to 90% and the IC50 lay within 50 to 100 nM. Further, in assay [3], the DC50 lay within 1 to 5 nM; the Dmax fell in the range of 80 to 90%; the “PBMC DC90” value was “C (C represents a DC90 value ≥25.0 nM and <50 nM)”.
On to `O=C1CCC(N2Cc3c(ccc(N4CCC(CN5CCC(n6cc7cc(NC(=O)c8cnn9cccnc89)c(OCC8CC8)cc7n6)CC5)CC4)c3F)C2=O)C(=O)N1` (stereo not shown) [Example 153], for which, in assay [1], the Dmax lay in the range of 80 to 90% and the IC50 was below 10 nM. Also, in assay [2], the Dmax was at least 90% and the half-maximal inhibitory concentration (IC50) was below 10 nM. For the same compound, in assay [3], the DC50 is below 1 nM, the Dmax is 80 to 90% and the “PBMC DC90” value is “A (A represents a DC90 value <10.0 nM)”.
`O=C1CCC(N2Cc3c(ccc(N4CCC(CN5CCC(n6cc7cc(NC(=O)c8cnn9cccnc89)c(OCC(F)F)cc7n6)CC5)CC4)c3F)C2=O)C(=O)N1` (stereo not shown) [Example 154]: in assay [1], the Dmax was at least 90% and the IC50 was below 10 nM. In assay [2], the Dmax fell in the range of 80 to 90% and the IC50 is below 10 nM. Moreover, in assay [3], the DC50 is below 1 nM, the Dmax was 80 to 90% and the “PBMC DC90” value was “A (A represents a DC90 value <10.0 nM)”.
With `O=C1CCC(N2Cc3ccc(N4CCC(CN5CCC(n6cc7cc(NC(=O)c8cnn9cccnc89)c(OCC8CC8)cc7n6)CC5)CC4)cc3C2=O)C(=O)N1` (stereo not shown) [Example 155], in assay [1], the Dmax is at least 90% and the IC50 was below 10 nM. Moreover, in assay [2], the Dmax was 80 to 90% and the IC50 was below 10 nM. Further, in assay [3], the DC50 is below 1 nM, the Dmax is at least 90% and the “PBMC DC90” value was “A (A represents a DC90 value <10.0 nM)”.
